The target in this experiment is recombinant human neutral endopeptidase (NEP, EC 3.4.24.11) (Homo sapiens (Human), UniProt P08473). Put plainly: in vitro inhibition of recombinant human neutral endopeptidase (fluorescence lifetime assay). Format: biochemical. The text has this: The activity of a compound according to the present invention can be assessed by the following in vitro & in vivo methods and/or by the following in vitro & in vivo methods well-described in the art. See A fluorescence lifetime-based assay for protease inhibitor profiling on human kallikrein 7 Doering K, Meder G, Hinnenberger M, Woelcke J, Mayr L M, Hassiepen U Biomol Screen.
In particular, the in vitro inhibition of recombinant human neutral endopeptidase (NEP, EC 3.4.24.11) can be determined as follows: […]

The term IC50 denotes the concentration that gives 50% inhibition.

Chain of recombinant human neutral endopeptidase (NEP, EC 3.4.24.11) (P08473 whole entry): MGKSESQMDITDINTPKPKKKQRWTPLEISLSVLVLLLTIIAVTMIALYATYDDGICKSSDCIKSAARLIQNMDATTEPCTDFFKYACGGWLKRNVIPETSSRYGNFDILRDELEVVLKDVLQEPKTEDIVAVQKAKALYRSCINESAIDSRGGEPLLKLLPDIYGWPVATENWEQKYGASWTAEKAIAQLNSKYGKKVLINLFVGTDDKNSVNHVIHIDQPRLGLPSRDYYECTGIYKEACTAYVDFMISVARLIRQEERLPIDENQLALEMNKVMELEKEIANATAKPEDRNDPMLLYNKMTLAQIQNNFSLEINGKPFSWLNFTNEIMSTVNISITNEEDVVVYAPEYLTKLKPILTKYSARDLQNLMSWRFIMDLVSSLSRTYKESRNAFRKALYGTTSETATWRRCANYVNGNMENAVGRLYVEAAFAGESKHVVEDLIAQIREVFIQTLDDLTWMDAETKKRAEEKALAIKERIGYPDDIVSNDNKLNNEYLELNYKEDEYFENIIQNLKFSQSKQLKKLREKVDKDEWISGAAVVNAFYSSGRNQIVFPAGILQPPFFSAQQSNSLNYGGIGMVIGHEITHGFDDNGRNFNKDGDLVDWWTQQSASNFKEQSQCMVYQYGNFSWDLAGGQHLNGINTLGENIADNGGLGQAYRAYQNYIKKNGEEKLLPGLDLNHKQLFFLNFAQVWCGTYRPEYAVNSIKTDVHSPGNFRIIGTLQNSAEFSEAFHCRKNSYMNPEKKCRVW

With `O=C(O)C[C@@H](Cc1ccc(-c2cccc(Cl)c2)cc1)NC(=O)CCC(=O)Oc1ccc2c(c1)CCC2` [Example 3-27], the concentration for half-maximal inhibition (IC50) is 0.015 µM.

The values are drawn from US8822534B2, “Substituted aminopropionic derivatives as neprilysin inhibitors” (priority 2009, dated 2014).
